Tests used:
[1] = system: arteriosklerotischen Arterienwandgewebe; assay: Reduction of LDL catabolism in arteriosclerotic arterial wall tissue (131J-TDS-LDL incorporation); assay type: in vivo; conditions: cholesterol-fed Kaninchen, 0.2 % Testsubstanz in diet for 10 Tage, 24 Stunden after LDL infusion, thorakale Aorta; mean ± SEM (range); control 65.7 ± 3.9
Excerpt: Beim arteriosklerotischen Kaninchen ist die Wirkung der neuen Phenolether direkt am arteriosklerotischen Plaque nachzuweisen. 131I-TDS-LDL, ein Radioiod-LDL, das von den Zellen nach oxydativer Modifikation aufgenommen wird, akkumuliert nach i.v. Gabe massiv im Plaquegewebe. Die neuen Phenolether hemmen signifikant und massiv den LDL-Katabolismus und damit die Cholesterinüberladung der Arterienwandzellen. Daraus resultiert langfristig die Hemmung des Wachstums der Läsionen (Tab. 4).
Jeweils 6 Kaninchen in der Kontrollgruppe und Bsp.l-Gruppe, bzw. 3 Kaninchen in der Probucol-Gruppe für 3 Monate mit 0.5 % Cholesterin-fettreicher Kaninchendiät gefüttert. Die Tiere der verschiedenen Gruppen haben S-Cholspiegel von 1028±99 (771-1358) - 1155±200 (655-1787) mg % am Ende der Fütterungsphase und- ein Körpergewicht von 3050-3680 g erreicht. Die Tiere erhalten dann für 10 Tage 0.2 % Testsubstanz in der fettreichen Diät und anschließend eine Infusion von ¹³¹J-Deoxysorbitol-LDL. Der Einbau von ¹³¹J-Deoxysorbitol in den Arterienwandzellen erfolgt ganz überwiegend in der arteriosklerotischen Läsion und ermöglicht die Quantifizierung des LDL-Umsatzes in den Zellen. 24 Stunden nach der Infusion des LDL werden die Tiere getötet und die thorakale Aorta präpariert. […]

[2] = system: P388D.1 murine Makrophagen; assay: Inhibition of LDL-oxidation-dependent cholesterol ester formation in P388 macrophages; assay type: cell-based; conditions: 10 µm test substance, 18 Stunden, control without LDL 0.44, control + LDL 1.81
Procedure: (§1) Die neuen Phenolether wirken LDL-protektiv. Bei Inkubation des LDL it Redoxmetallen hemmen sie die Bildung von thiobarbitursäure-reaktiven Lipidperoxiden (Tab. 1), bei der Oxidation des LDL durch Lipoxydase wird eine selektive Hemmwirkung deutlich (Tab. 2). Unter Testbedingungen, die zu einem wirksamen LDL-Schutz führen, wird die Cholesterinesterbildung in kultivierten Makrophagen gehemmt (Tab. 3).
125 µg/ml LDL-Protein wurde in F 10-Medium +1 µM Cu⁺⁺ für 5 Stunden inkubiert, um LDL-Antioxidantien zu depletieren. Dann wurden P388D.1 murine Makrophagen (1 x 10⁶ Zellen/ml) in F 10-Medium + 10 % FCS für 18 Stunden mit diesem Ansatz weiter inkubiert. Unter diesen Versuchsbedingungen bleibt das Verhältnis freies Cholesterin (FC)/Protein konstant bei 0.2 µg/mg, während die Cholesterinester in Abhängigkeit von LDL im Medium in den P388D.1 Makrophagen ansteigen, hier ausgedrückt als Anstieg des Verhältnisses von Cholesterinester/freiem Cholesterin […]. Tabelle 4

LDL = assay: Inhibition of Cu++-dependent LDL oxidation (TBARS formation); assay type: biochemical; conditions: 10 µM Testsubstanz, 125 µg/ml LDL-protein + 10 µM Cu++, 37° C
Procedure: as §1
125 µg/ml LDL-protein + 10 µM Cu⁺⁺ wurden bei 37° C in 2 ml TN-Puffer (20 mM Tris ph 8, 150 mM NaCl) in An- und Abwesenheit von 10 µM Testsubstanz inkubiert. Die Bildung von LDL-Oxidationsprodukten wurde anhand thiobarbitursäurereaktiver Substanzen (TBARS) bei OD532 16 und 23 Stunden nach Beginn der Inkubation gemessen. Tabelle 2

Lipoxydase aus Sojabohne = molecular target: T1, Lipoxydase aus Sojabohne (Glycine max, UniProt P08170); assay: Inhibition of LDL oxidation by lipoxydase (diene formation at A 234); assay type: biochemical; conditions: 100 µg LDL-Protein, 500 U/ml Lipoxydase, 37° C, 0-10 µM Testsubstanz, diene formation over 3 h
T1 construct: purchased Sigma, München
T1 sequence (P08170 1-839): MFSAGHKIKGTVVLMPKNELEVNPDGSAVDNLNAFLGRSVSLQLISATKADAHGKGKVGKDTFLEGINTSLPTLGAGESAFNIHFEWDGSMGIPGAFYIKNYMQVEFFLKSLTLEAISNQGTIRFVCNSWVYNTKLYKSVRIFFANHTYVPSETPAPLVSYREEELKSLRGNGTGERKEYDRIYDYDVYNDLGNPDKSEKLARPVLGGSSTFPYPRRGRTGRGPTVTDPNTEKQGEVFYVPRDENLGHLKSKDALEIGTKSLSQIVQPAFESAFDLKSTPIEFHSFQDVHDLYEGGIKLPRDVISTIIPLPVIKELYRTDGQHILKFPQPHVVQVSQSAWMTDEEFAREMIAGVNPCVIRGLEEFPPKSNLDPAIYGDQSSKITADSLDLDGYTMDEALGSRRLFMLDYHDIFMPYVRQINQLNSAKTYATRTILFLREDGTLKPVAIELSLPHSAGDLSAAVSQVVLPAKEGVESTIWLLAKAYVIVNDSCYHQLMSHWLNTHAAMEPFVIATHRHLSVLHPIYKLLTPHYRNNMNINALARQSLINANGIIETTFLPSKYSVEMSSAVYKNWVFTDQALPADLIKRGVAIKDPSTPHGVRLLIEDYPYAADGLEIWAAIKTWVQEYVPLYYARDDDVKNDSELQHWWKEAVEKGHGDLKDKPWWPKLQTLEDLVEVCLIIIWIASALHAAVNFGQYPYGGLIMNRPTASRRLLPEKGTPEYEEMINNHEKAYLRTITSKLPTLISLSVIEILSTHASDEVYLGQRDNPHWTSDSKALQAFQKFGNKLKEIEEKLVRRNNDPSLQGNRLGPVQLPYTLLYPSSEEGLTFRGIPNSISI
Procedure: (Tab. 2). […] Die Bildung von […] aus der Oxidation […] des LDL wird bei A 234 über 3 h verfolgt und ist im Kontrollansatz ca. 0.075/h. Die Inhibition der Dienbildung dient als Maß der Lipoxydaseaktivität am LDL-substrat.

CC(C)(C)c1cc(OCCCOc2cc(C(C)(C)C)c(O)c(C(C)(C)C)c2)cc(C(C)(C)C)c1O [Bsp. 1, 1,3-Bis-[4-hydroxy-3,5-di-tert.butyl-phenoxy]propan]
Einbau von 131J-TDS-LDLnorm±SEM ng/(mm³xdt/2) [1]: 35 ± 1,9 (7-63) ng/(mm³xdt/2)
CE/FC [2]: 0.48 µg/µg
TBARS (OD 532) % (LDL; 16 Std., control 75): 19%
TBARS (OD 532) % (LDL; 23 Std., control 100): 76%
IC50 (Lipoxydase aus Sojabohne): 50 nM

CC(C)(Sc1cc(C(C)(C)C)c(O)c(C(C)(C)C)c1)Sc1cc(C(C)(C)C)c(O)c(C(C)(C)C)c1 [Probucol, 4,4'[Isopropylidendithio]-bis(2,6-di-tert.-butyl), reference compound]
Einbau von 131J-TDS-LDLnorm±SEM ng/(mm³xdt/2) [1]: 84 ± 7.5 (40-144) ng/(mm³xdt/2)
CE/FC [2]: 0.52 µg/µg
TBARS (OD 532) % (LDL; 16 Std., control 75): 56%
TBARS (OD 532) % (LDL; 23 Std., control 100): 88%

Source: patent EP0579622B1, “NEW PHENOL ETHERS, PROCESS FOR PRODUCING THE SAME AND MEDICAMENTS CONTAINING THESE COMPOUNDS” (BOEHRINGER MANNHEIM GMBH, priority 1991, dated 1992)
